This is an account of results in US20040132739A1, “Combination of a gelatinase inhibitor and an anti-tumor agent, and uses thereof” (priority 2001, published 2004).

Data set [1] relates to PancTul pancreas carcinoma. Conditions: for inhibition of primary tumor growth: RO 28-2653 45 mg/kg oral daily day 7 to 30; for inhibition of primary tumor growth / Volume Primary tumor (Vm) / average number of metastases per animal: Gemcitabine 2.2 mg/kg i.p. every second day, day 7 to 30; for Volume Primary tumor (Vm) / average number of metastases per animal: RO 28-2653 45 mg/kg oral daily; for Metastasis Diaphragm / Metastasis Kidneys/Adrenal gland (capsule) / Metastasis Ligament of the uterus/testis (serosa), seminal vesicles / Metastasis Liver hilus / Metastasis Liver, in parenchyme / Metastasis Liver, on serosa / Metastasis Lung/Mediastinum / Metastasis Lymph nodes in mesentery / Metastasis Mesentery 3-20 metastasis(1-18 mm^3) / Metastasis Mesentery < 3 metastasis(^2 mm^3) / Metastasis Pelvis / Metastasis Site of surgical incision Large 80-280 mm^3 / Metastasis Site of surgical incision Medium < 50 mm^3 / Metastasis Site of surgical incision Small < 10 mm^3 / Metastasis Spleen (serosa), gastrosplenic ligament: animals with metastasis / animals in group; for Necrosis Primary tumor: animals with necrosis / animals in group; for Tumor take rate Primary tumor: animals with tumor / animals in group; for Body weight (m): mean change (spread).
Experimental: The activity of RO 28-2653 in combination with Gemcitabine was evaluated in the human orthotopic pancreas carcinoma mouse xenograft model PancTul with primary tumor size and number and size of metastases as endpoints.
Effect of the combination of RO 28-2653 and Gemcitabine on primary tumor volume in the orthotopic PancTul pancreas cancer xenograft model. Mice were treated with RO 28-2653 with daily oral doses of 45 mg/kg from day 7 until day 30. Gemcitabine treatment consisted of one intraperitoneal dose of 2.2 mg/kg every second day from day 7 to day 30.
Effect of the combination of RO 28-2653 and Gemcitabine on metastatic spread in the orthotopic PancTul pancreas cancer xenograft model. Mice were treated with RO 28-2653 with daily oral doses of 45 mg/kg from day 7 until day 30. Gemcitabine treatment consisted of one intraperitoneal dose of 2.2 mg/kg every second day from day 7 to day 30.

The test system of another data set is HOC-22 ovarian carcinoma. The data set can be described thus: human orthotopic ovarian carcinoma mouse xenograft model HOC-22, survival. The format is in vivo. Conditions: versus vehicle/control mice (median survival 30 days); RO 28-2653 45 mg/kg oral daily six times a week, day 7 to 21; Cisplatin 4 doses of 3 mg/kg i.v. every 4 days from day 7. On the procedure:
DDP=Cisplatin. […] Statistics was calculated using the log rank test. […] Cisplatin treatment consisted of 4 doses of 3 mg/kg i.v. per mouse once every 4 days, starting on day 7.

Data set [2] has as its system MatLyLu prostate carcinoma. Description: rat syngeneic orthotopic prostate carcinoma model MatLyLu, primary tumor size. The format is in vivo. Conditions: as compared to vehicle-treated animals; RO 28-2653 100 mg/kg oral daily, Etoposide 25 mg/m^2 i.p. once daily, day 6 to day 17. On the procedure:
Etoposide was given intraperitoneally once daily, from day 6 to day 17, at a dose of 25 mg/m^2.

The nature of data set [3]: toxicological tests over a wide range of doses. The format is in vivo. Conditions: side effects like those of broad-spectrum MMP inhibitors. From the text:
Thus, no dose-limiting toxicities were expected with RO 28-2653, and accordingly no additional benefit from co-treatment with cytostatic/cytotoxic drugs was expected. However, to explore also the distant possibility of an additional benefit from combination treatment, such studies were initiated and conducted in various animal models. The models and cytostatic/cytotoxic drugs were chosen to reflect as broad a spectrum of oncological indications and clinically active treatment principles as possible.

As for `Nc1ccn([C@@H]2O[C@H](CO)[C@@H](O)C2(F)F)c(=O)n1` [Gemcitabine, reference compound], in data set [1], the “inhibition of primary tumor growth” value was 85%, the “Volume Primary tumor (Vm)” value is on record as “Vm = 51 (±14) mm^3”, the “average number of metastases per animal” value came to 0.4 metastases per animal and the “Metastasis Diaphragm” value is reported as 0/13. Also, in data set [1], the “Metastasis Kidneys/Adrenal gland (capsule)” value was 0/13; the “Metastasis Ligament of the uterus/testis (serosa), seminal vesicles” value was 0/13; the “Metastasis Liver hilus” value is given as 0/13; the “Metastasis Liver, in parenchyme” value was 1/13. In addition, in data set [1], the “Metastasis Liver, on serosa” value is listed as 1/13; the “Metastasis Lung/Mediastinum” value is listed as 0/13; the “Metastasis Lymph nodes in mesentery” value was 0/13; the “Metastasis Mesentery 3-20 metastasis(1-18 mm^3)” value is reported as 0/13. Further, in data set [1], the “Metastasis Mesentery < 3 metastasis(^2 mm^3)” value was 0/13, the “Metastasis Pelvis” value is given as 0/13, the “Metastasis Site of surgical incision Large 80-280 mm^3” value is given as 0/13 and the “Metastasis Site of surgical incision Medium < 50 mm^3” value is 1/13. Moreover, in data set [1], the “Metastasis Site of surgical incision Small < 10 mm^3” value is reported as 2/13; the “Metastasis Spleen (serosa), gastrosplenic ligament” value was 0/13; the “Necrosis Primary tumor” value is 4/13; the “Tumor take rate Primary tumor” value is reported as 13/13. In data set [1], the “Body weight (m)” value was “m = −2 (±5)%”.

`N.N.[Cl][Pt][Cl]` [Cisplatin, reference compound] came in with an increase in lifespan in the data set on HOC-22 ovarian carcinoma of 95%.

Regarding `O=C1NC(=O)C(c2ccc(-c3ccccc3)cc2)(N2CCN(c3ccc([N+](=O)[O-])cc3)CC2)C(=O)N1` [RO 28-2653, 5-(4-biphenyl)-5-[N-(4-nitrophenyl)piperazinyl] barbituric acid], in data set [1], the “inhibition of primary tumor growth” value amounted to 66%, the “Volume Primary tumor (Vm)” value was “Vm = 112 (±46) mm^3”, the “average number of metastases per animal” value stood at 2.5 metastases per animal and the “Metastasis Diaphragm” value is 3/13. Further, in data set [1], the “Metastasis Kidneys/Adrenal gland (capsule)” value is given as 1/13; the “Metastasis Ligament of the uterus/testis (serosa), seminal vesicles” value is 0/13; the “Metastasis Liver hilus” value was 4/13; the “Metastasis Liver, in parenchyme” value is 3/13. In addition, in data set [1], the “Metastasis Liver, on serosa” value is 2/13; the “Metastasis Lung/Mediastinum” value is 2/13; the “Metastasis Lymph nodes in mesentery” value is listed as 2/13; the “Metastasis Mesentery 3-20 metastasis(1-18 mm^3)” value is on record as 5/13. In data set [1], the “Metastasis Mesentery < 3 metastasis(^2 mm^3)” value is listed as 0/13, the “Metastasis Pelvis” value is 0/13, the “Metastasis Site of surgical incision Large 80-280 mm^3” value was 6/13 and the “Metastasis Site of surgical incision Medium < 50 mm^3” value is on record as 3/13. Also, in data set [1], the “Metastasis Site of surgical incision Small < 10 mm^3” value is on record as 2/13; the “Metastasis Spleen (serosa), gastrosplenic ligament” value is given as 0/13; the “Necrosis Primary tumor” value is listed as 1/13; the “Tumor take rate Primary tumor” value was 13/13. In addition, in data set [1], the “Body weight (m)” value is “m = −5 (±4)%”. For the same compound, the “inhibition of primary tumor growth” value in data set [2] is 86%. Also, the side effects result in data set [3] is given as “no side effects”. This compound registered an increase in lifespan with HOC-22 ovarian carcinoma of 63%.

Consider `COc1cc([C@@H]2c3cc4c(cc3[C@@H](O[C@@H]3O[C@@H]5CO[C@@H](C)O[C@H]5[C@H](O)[C@H]3O)[C@H]3COC(=O)[C@H]23)OCO4)cc(OC)c1O` [Etoposide, reference compound], for which, in data set [2], the “inhibition of primary tumor growth” value stood at 35%.
